Measurements as given in ChEMBL document CHEMBL1144604, “Synthesis and biological evaluation of phosphonate derivatives as autotaxin (ATX) inhibitors” (Bioorg Med Chem Lett, 2007).

What was measured:
Autotaxin (Homo sapiens) [1] = biological target: Autotaxin (Homo sapiens) (UniProt Q13822); assay: Inhibition of human recombinant ATX at 1 uM after 16 hrs; values are per cent of control
Autotaxin (Homo sapiens) [2] = biological target: Autotaxin (Homo sapiens) (UniProt Q13822); assay: Inhibition of human recombinant ATX at 10 uM after 16 hrs; values are per cent of control
Autotaxin (Homo sapiens) [3] = biological target: Autotaxin (Homo sapiens) (UniProt Q13822); assay: Inhibition of human recombinant ATX at 100 uM after 16 hrs; values are per cent of control

**Q.** Which results are given for CCCCCCCCCCCCCCCC(=O)N[C@@H](Cc1ccc(OCc2cc(OCC(F)(F)F)ccn2)cc1)C(O)CP(=O)(O)O (single isomer, unassigned; diastereomer b)?
**A.** residual activity (Autotaxin (Homo sapiens) [1]): 103%; residual activity (Autotaxin (Homo sapiens) [2]): 83%; residual activity (Autotaxin (Homo sapiens) [3]): 56%

**Q.** CCCCCCCCCCCCCCCC(=O)N[C@H](Cc1ccc(OCCC)cc1)C(O)CP(=O)(O)O (stereo in doubt) was tested. Which residual activity (Autotaxin (Homo sapiens) [1]) did it give?
**A.** 80%

**Q.** What about the residual activity (Autotaxin (Homo sapiens) [2]) of the same molecule?
**A.** 79%

**Q.** What about the residual activity (Autotaxin (Homo sapiens) [3]) of the same molecule?
**A.** 72%

**Q.** What does the source list for CCCCCCCCCCCCCCCC(=O)N[C@@H](Cc1ccc(OCc2cc(OCC(F)(F)F)ccn2)cc1)C(O)CP(=O)(O)O (stereo in doubt; f3)?
**A.** residual activity (Autotaxin (Homo sapiens) [1]): 92%; residual activity (Autotaxin (Homo sapiens) [2]): 80%; residual activity (Autotaxin (Homo sapiens) [3]): 32%

**Q.** How did the residual activity (Autotaxin (Homo sapiens) [1]) turn out when CCCCCCCCCCCCCCCC(=O)N[C@H](Cc1ccc(OCc2ccccn2)cc1)C(O)CP(=O)(O)O (stereo in doubt; f9) was run?
**A.** 103%

**Q.** What about the residual activity (Autotaxin (Homo sapiens) [2]) of the same molecule?
**A.** 76%

**Q.** What about the residual activity (Autotaxin (Homo sapiens) [3]) of the same molecule?
**A.** 60%

**Q.** CCCCCCCCCCCCCCCC(=O)N[C@@H](Cc1ccc(OCc2ncc(C)c(OC)c2C)cc1)C(O)CP(=O)(O)O (stereo in doubt; f17) was tested. Which residual activity (Autotaxin (Homo sapiens) [1]) did it give?
**A.** 27%

**Q.** What about the residual activity (Autotaxin (Homo sapiens) [2]) of the same molecule?
**A.** 13%

**Q.** And the residual activity (Autotaxin (Homo sapiens) [3])?
**A.** 6%

**Q.** How did the residual activity (Autotaxin (Homo sapiens) [1]) turn out when CCCCCCCCCCCCCCCC(=O)N[C@@H](Cc1ccc(OCc2ncc(C)c(OC)c2C)cc1)C(O)CP(=O)(O)O (stereo in doubt; f18) was run?
**A.** 63%

**Q.** What about the residual activity (Autotaxin (Homo sapiens) [2]) of the same molecule?
**A.** 21%

**Q.** What about the residual activity (Autotaxin (Homo sapiens) [3]) of the same molecule?
**A.** 8%

**Q.** What does the source list for CCCCCCCCCCCCCCCC(=O)N[C@H](Cc1ccc(OC)cc1)C(O)CP(=O)(O)O (stereo in doubt; f20)?
**A.** residual activity (Autotaxin (Homo sapiens) [1]): 95%; residual activity (Autotaxin (Homo sapiens) [2]): 84%; residual activity (Autotaxin (Homo sapiens) [3]): 82%

**Q.** CCCCCCCCCCCCCCCC(=O)N[C@@H](Cc1ccc(OC)cc1)C(O)CP(=O)(O)O (stereo in doubt; f22) was tested. Which residual activity (Autotaxin (Homo sapiens) [1]) did it give?
**A.** 84%

**Q.** And the residual activity (Autotaxin (Homo sapiens) [2])?
**A.** 80%

**Q.** What about the residual activity (Autotaxin (Homo sapiens) [3]) of the same molecule?
**A.** 69%

**Q.** What does the source list for CCCCCCCCCCCCCCCC(=O)N[C@@H](Cc1ccc(OCCC(C)C)cc1)C(O)CP(=O)(O)O (stereo in doubt; f33)?
**A.** residual activity (Autotaxin (Homo sapiens) [1]): 104%; residual activity (Autotaxin (Homo sapiens) [2]): 104%; residual activity (Autotaxin (Homo sapiens) [3]): 82%

**Q.** With CCCCCCCCCCCCCCCC(=O)N[C@@H](Cc1ccc(OCCC(C)C)cc1)C(O)CP(=O)(O)O (stereo in doubt; f34) as the molecule, how does the residual activity (Autotaxin (Homo sapiens) [1]) read?
**A.** 106%

**Q.** What about the residual activity (Autotaxin (Homo sapiens) [2]) of the same molecule?
**A.** 101%

**Q.** What about the residual activity (Autotaxin (Homo sapiens) [3]) of the same molecule?
**A.** 91%

**Q.** Which residual activity (Autotaxin (Homo sapiens) [1]) does the source give for CCCCCCCCCCCCCCCCCC(=O)N[C@@H](Cc1ccc(OCc2ncc(C)c(OC)c2C)cc1)C(O)CP(=O)(O)O (stereo in doubt; f39) here?
**A.** 101%

**Q.** And the residual activity (Autotaxin (Homo sapiens) [2])?
**A.** 91%

**Q.** What about the residual activity (Autotaxin (Homo sapiens) [3]) of the same molecule?
**A.** 81%

**Q.** CCCCCCCC/C=C/CCCCCCCC(=O)N[C@@H](Cc1ccc(OCc2ncc(C)c(OC)c2C)cc1)C(O)CP(=O)(O)O (stereo in doubt; f42) was tested. Which residual activity (Autotaxin (Homo sapiens) [1]) did it give?
**A.** 77%

**Q.** And the residual activity (Autotaxin (Homo sapiens) [2])?
**A.** 68%

**Q.** And the residual activity (Autotaxin (Homo sapiens) [3])?
**A.** 58%
